Test results: US20060069132A1, “Azolecarboxamide herbicides” (priority 2004, published 2006)

Experiments:
Experiment in all cases: Test E pre-/postemergence herbicide test
[1] = tested on: annual bluegrass; type: in vivo, Poa annua
Procedure, shortened: (§1)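 Each species was compared with untreated controls 12 to 14 days after greenhouse application and assigned a visual score from 0 (no effect) to 100 (complete control). Applications were preemergence to seeded soil or postemergence to 1- to 4-leaf plants, using a solvent-plus-surfactant formulation.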

[2] = tested on: common ragweed; type: in vivo, Ambrosia elatior
Procedure, shortened: as §1

[3] = tested on: green foxtail; type: in vivo, Setaria viridis
Procedure, shortened: as §1

[4] = tested on: southern sandbur; type: in vivo, Cenchrus echinatus
Procedure, shortened: as §1

[5] = tested on: prickly sida; type: in vivo, Sida spinosa
Procedure, shortened: as §1

[6] = tested on: large crabgrass; type: in vivo, Digitaria sanguinalis
Procedure, shortened: as §1

[7] = tested on: goosegrass; type: in vivo, Eleusine indica
Procedure, shortened: as §1

[8] = tested on: johnsongrass; type: in vivo, Sorghum halepense
Procedure, shortened: as §1

[9] = tested on: dallisgrass; type: in vivo, Paspalum dilatatum
Procedure, shortened: as §1

[10] = tested on: bipinnate beggarticks; type: in vivo, Bidens bipinnata; settings: scale 0 to 100
Procedure, shortened: as §1

[11] = Postemergence, 500 g ai/ha, scale 0 to 100
[12] = Postemergence, 250 g ai/ha, scale 0 to 100
[13] = Preemergence, 62 g ai/ha, scale 0 to 100
[14] = Preemergence, 125 g ai/ha, scale 0 to 100
[15] = Preemergence, 250 g ai/ha, scale 0 (no effect) to 100 (complete control)
[16] = Preemergence, 500 g ai/ha, scale 0 (no effect) to 100 (complete control)
[17] = postemergence, 125 g ai/ha, scale 0 to 100
[18] = postemergence, 62 g ai/ha, scale 0 to 100

CCn1nc(C2(C)CC2)cc1C(=O)Nc1cc(C(=O)N(C)C)ccc1F [Compound 299]
60: Plant response rating, Bluegrass [1, 18] | Plant response rating, Ragweed [2, 17] | Plant response rating, Sandbur [4, 14] | Plant response rating, Prickly Sida [5, 18] | Plant response rating, Goosegrass [7, 18] | Plant response rating, Johnsongrass [8, 14] | Plant response rating, Johnsongrass [8, 18] | Plant response rating, Beggarticks, Bip. ([10]; Postemergence, 250 g ai/ha) | Plant response rating, Beggarticks, Bip. ([10]; postemergence, 125 g ai/ha)
50: Plant response rating, Foxtail, Green [3, 13] | Plant response rating, Dallisgrass [9, 18]
70: Plant response rating, Bluegrass [1, 17] | Plant response rating, Ragweed [2, 12] | Plant response rating, Foxtail, Green [3, 17] | Plant response rating, Sandbur [4, 12] | Plant response rating, Dallisgrass [9, 17]
10: Plant response rating, Sandbur [4, 13]
95: Plant response rating, Bluegrass [1, 14] | Plant response rating, Bluegrass [1, 15] | Plant response rating, Prickly Sida [5, 11] | Plant response rating, Prickly Sida [5, 12] | Plant response rating, Prickly Sida [5, 17] | Plant response rating, Crabgrass, Large [6, 11] | Plant response rating, Crabgrass, Large [6, 12]
40: Plant response rating, Sandbur [4, 17] | Plant response rating, Johnsongrass [8, 13] | Plant response rating, Beggarticks, Bip. ([10]; postemergence, 62 g ai/ha)
90: Plant response rating, Ragweed [2, 11] | Plant response rating, Ragweed [2, 15] | Plant response rating, Crabgrass, Large [6, 13]
85: Plant response rating, Bluegrass [1, 13] | Plant response rating, Ragweed [2, 14] | Plant response rating, Foxtail, Green [3, 12] | Plant response rating, Prickly Sida [5, 13] | Plant response rating, Prickly Sida [5, 14] | Plant response rating, Crabgrass, Large [6, 17] | Plant response rating, Goosegrass [7, 11] | Plant response rating, Johnsongrass [8, 11] | Plant response rating, Johnsongrass [8, 12] | Plant response rating, Dallisgrass [9, 11] | Plant response rating, Dallisgrass [9, 14]
80: Plant response rating, Bluegrass [1, 12] | Plant response rating, Sandbur [4, 11] | Plant response rating, Goosegrass [7, 12] | Plant response rating, Goosegrass [7, 17] | Plant response rating, Johnsongrass [8, 15] | Plant response rating, Johnsongrass [8, 17] | Plant response rating, Beggarticks, Bip. ([10]; Postemergence, 500 g ai/ha)
20: Plant response rating, Ragweed [2, 13]
30: Plant response rating, Ragweed [2, 18] | Plant response rating, Foxtail, Green [3, 18] | Plant response rating, Sandbur [4, 18]
75: Plant response rating, Crabgrass, Large [6, 18] | Plant response rating, Dallisgrass [9, 12] | Plant response rating, Dallisgrass [9, 13]
100: Plant response rating, Bluegrass [1, 11] | Plant response rating, Bluegrass [1, 16] | Plant response rating, Ragweed [2, 16] | Plant response rating, Foxtail, Green [3, 11] | Plant response rating, Foxtail, Green [3, 14] | Plant response rating, Foxtail, Green [3, 15] | Plant response rating, Foxtail, Green [3, 16] | Plant response rating, Sandbur [4, 15] | Plant response rating, Sandbur [4, 16] | Plant response rating, Prickly Sida [5, 15] | Plant response rating, Prickly Sida [5, 16] | Plant response rating, Crabgrass, Large [6, 14] | Plant response rating, Crabgrass, Large [6, 15] | Plant response rating, Crabgrass, Large [6, 16] | Plant response rating, Goosegrass [7, 13] | Plant response rating, Goosegrass [7, 14] | Plant response rating, Goosegrass [7, 15] | Plant response rating, Goosegrass [7, 16] | Plant response rating, Johnsongrass [8, 16] | Plant response rating, Dallisgrass [9, 15] | Plant response rating, Dallisgrass [9, 16]
